What is called LD50 is the dose expected to kill half of the subjects tested.

The test system of one data set is anesthetized dogs. Briefly: Electromagnetic blood flow measurement (vertebral/cerebral blood flow). It is filed as in vivo. The conditions noted are these: vertebral blood flow. As for the experimental part: After orotraqueal intubation, artificial respiration with normal air was instituted using a Manley Pulmovent respirator. The correct ventilation of the dogs was checked after all the surgical procedures by determining the p02, pC02, and pH in arterial blood samples, as well as several times during the experiment by means of an Astrup apparatus. Blood pressure was measured in left saphenous artery by means of a Bell & Howell pressure transducer, and the heart rate by means of a Beckman ECG device. Recordings were made on an ink-writing Beckman polygraph. Left saphenous vein and right saphenous artery were cannulated with polyethylene catheters for drug administration and blood collection respectively.
Vertebral blood flow was measured by a non-cannulating electro-magnetic flowmeter (Carolina Medical Electronics) placed in the vertebral artery.
The Carolina digital flowmeter was connected to an Omniscribe Houston Instruments plotter.
Piracetam and nicotinic acid were used as control drugs.

In data set [1] the test system is animals. Briefly: Unspecific protection against lethality: hypoxia-hypobara (decompression), survival time. It is filed as in vivo. The following applies: survival time under decompression. An excerpt:
We have chosen the hypoxia-hypobara : the decompression kills the animals, because of the lack of 02.

For another data set, the system named is mouse. Briefly: Unspecific protection against lethality: gasping time after quick decapitation. The following applies: gasping time after decapitation of mouse. The data set is classed as in vivo.
The subject of data set [2] is animals. Put plainly: Unspecific protection against lethality: anoxia by CNK, survival time. It is filed as in vivo. The conditions noted are these: survival time after CNK.
The nature of data set [3]: LD50 of representative compounds. The following applies: in vivo. An excerpt:
LD50 of representative compounds included in Table III.

Molecules are shown by their SMILES.

Excerpt for mouse: The second trial is the quick decapitation of mouse. The head has a typical mandibular movement, known as gasping, as searching the breathing air.

As for `CC1CC(OC(=O)CN2CCCC2=O)CC(C)(C)C1` (mixture of isomers) [cis/trans 3,3,5-trimethylcyclohexyl 2-oxo-l-pyrrolidineacetate], the EFFECT result in the data set on anesthetized dogs (DOSE 1 mg/kg) was “Active”. Besides, the “HYPOXIA HYPOBARA” value in the data set with animals [1] (DOSE 500mg/kg) is listed as “Active”. Also, the GASPING entry in the data set on mouse (DOSE 500mg/kg) is reported as “Very active”. Further, the “ANOXIA BY CNK” value in the data set on animals [2] (DOSE 500mg/kg) is given as “Very active”. For the same molecule, the LD50 in data set [3] was 3170 mg/kg.

With `O=C1NC(=O)C(c2ccccc2)(c2ccccc2)N1` [Difenilhydantoine, reference compound], the “HYPOXIA HYPOBARA” value with animals [1] (DOSE 100mg/kg) is “Active”. For the same molecule, the GASPING entry in the data set with mouse (DOSE 100mg/kg) is listed as “Very active”. For the same molecule, the “ANOXIA BY CNK” value in the data set on animals [2] (DOSE 100mg/kg) was “Active”.

`O=C(O)c1cccnc1` [Nicotinic acid]: the EFFECT result with anesthetized dogs (no dose given) is on record as “No effect”.

For `COc1ccc(Cc2nccc3cc(OC)c(OC)cc23)cc1OC` [Papaverine], in the data set on anesthetized dogs (DOSE 0.5 mg/kg), the EFFECT result is recorded as “Active”.

Regarding `NC(=O)CN1CCCC1=O` [Piracetam, 2-oxo-1-pyrrolidineacetamide, reference compound], the EFFECT result in the data set on anesthetized dogs (no dose given) is “No effect”. The “HYPOXIA HYPOBARA” value in the data set on animals [1] (DOSE 1000mg/kg) was “No effect”. Also, the GASPING result with mouse (DOSE 1000mg/kg) was “No effect”. The “ANOXIA BY CNK” value with animals [2] (DOSE 1000mg/kg) is recorded as “No effect”.

Take `CCC(C(=O)OC1CC(C)CC(C)(C)C1)N1CCCC1=O` (stereo not drawn) [cis 3,3,5-trimethylcyclohexyl 2-(2-oxo-l-pyrrolidinyl)butyrate]: in the data set with anesthetized dogs (DOSE 0.5 mg/kg), the EFFECT entry is “Active”. Besides, in the data set on animals [1] (DOSE 500mg/kg), the “HYPOXIA HYPOBARA” value is listed as “Active”. Moreover, the GASPING entry with mouse (DOSE 500mg/kg) is given as “Very active”. Moreover, in the data set on animals [2] (DOSE 500mg/kg), the “ANOXIA BY CNK” value is “Very active”. The molecule also registered a median lethal dose (LD50) in data set [3] of 2850 mg/kg.

These data come from patent publication EP0089901A1, “New 2-oxo-1-pyrrolidineacetic acid esters, their methods of production and therapeutic compositions containing the same” (PRODES S.A., priority 1982, dated 1983).
